For 16 compounds, TGI results are on record in PubChem BioAssay (NCI).

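96-well plates; 48 h exposure; 5 concentrations. Endpoints by linear interpolation between flanking doses. Not reached: highest tested concentration assigned. TGI denotes the concentration required for complete inhibition of growth.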

What all share (assay): inhibition of tumour cell growth, NCI panel, 48 h
In test [1] the test system is 786-0 renal.
For test [2], the system named is BT-549 breast.
The subject of test [3] is CAKI-1 renal.
Test [4] relates to HCT-116 colon.
Test [5] relates to HCT-15 colon.
In test [6] the test system is HOP-92 NSCLC.
For test [7], the system named is HT29 colon.
Test [8] has as its system LOX IMVI melanoma.
Test [9] has as its system MDA-MB-435.
The subject of test [10] is NCI-H460 lung.
The test system of test [11] is NCI/ADR-RES ovarian.
The test system of test [12] is OVCAR-4 ovarian.
The test system of test [13] is SF-268 CNS.
Test [14] has as its system SK-MEL-28 melanoma.
For test [15], the system named is SK-OV-3 ovarian.
The test system of test [16] is SNB-19 CNS.
Test [17] concerns UACC-62 melanoma.
The test system of test [18] is MOLT-4 leukemia.
For test [19], the system named is UO-31 renal.
Test [20] has as its system PC-3 prostate.

For the compound `CCOC(=O)/C(=C\NC(C)(C)C)c1nc2ccccc2o1`, the TGI in test [1] is 70.7 µM; in test [2], greater than 100 µM; in test [3] it was greater than 100 µM; in [4] it was greater than 100 µM; in [5], greater than 100 µM; in [6] it was 92.1 µM. The TGI in test [7] is 80.8 µM; in [8], 65.4 µM; in test [9], greater than 100 µM; in test [10] it was greater than 100 µM; in [11] it was greater than 100 µM; in [12] it was greater than 100 µM. Further, the TGI in [13] is greater than 100 µM; in test [14] it was greater than 100 µM; in [15], greater than 100 µM; in test [16], greater than 100 µM; in test [17], 50.6 µM.
Regarding `COc1ccccc1N1C(=O)/C(=C\c2cc(OC)c(OC)c(OC)c2)S(=O)(=O)C1c1ccccc1` (stereo not given), the TGI in test [1], in [2], in test [3], in test [4], in [5] and in test [6] was greater than 100 µM each time. Besides, the TGI in test [8] is greater than 100 µM; in test [9], 41.3 µM; in [18], greater than 100 µM; in [10], greater than 100 µM; in test [11] it was 72.1 µM; in [12] it was greater than 100 µM. The TGI in test [13] was greater than 100 µM; in test [14] it was greater than 100 µM; in test [15] it was 76.5 µM; in test [16], greater than 100 µM; in test [17] it was greater than 100 µM; in test [19], greater than 100 µM.
Regarding `Cc1ccc(S(=O)(=O)n2cnc(CC(NC(=O)C3CCC(=O)N3C(=O)OCc3ccccc3)C(=O)N3CCCC3C(=O)NN)c2)cc1` (stereo not given), the TGI in test [1], in test [2], in test [4], in test [5], in test [6] and in test [7] was greater than 100 µM in each case. In addition, the TGI in test [18], in test [10], in test [20], in [14], in test [16] and in test [19] was greater than 100 µM in each case.
Turning to `O=C(O)CCSc1nnc(COc2ccc(Cl)cc2)n1-c1ccccc1`, the TGI in test [1], in test [3], in [4], in test [5], in [6] and in [7] was greater than 100 µM each time. Besides, the TGI in [8], in test [9], in test [18], in [10], in [11] and in test [12] was greater than 100 µM each time. Moreover, the TGI in test [20], in [13], in [14], in test [15], in [16] and in [17] was greater than 100 µM in each case. The compound further registered a TGI in test [19] greater than 100 µM.
For the compound `O=C(CCCN1CC=C(n2c(=O)[nH]c3ccccc32)CC1)c1cccs1`, the TGI in test [1], in test [3], in test [4], in test [5], in test [6] and in [7] was greater than 100 µM each time. The TGI in test [8], in [9], in test [18], in test [10], in test [11] and in test [12] was greater than 100 µM in each case. The TGI in test [20], in test [13], in test [14], in test [15], in test [16] and in test [17] was greater than 100 µM in each case. The compound further gave a TGI in [19] greater than 100 µM.
For `O=c1[nH]n(Cc2ccccc2CCl)c2ccc([N+](=O)[O-])cc12`, the TGI is greater than 100 µM in test [1]; 63.3 µM in test [3]; greater than 100 µM in test [4]; greater than 100 µM in test [5]; greater than 100 µM in test [6]; greater than 100 µM in [7]. In addition, the TGI in [8] is greater than 100 µM; in [9] it was greater than 100 µM; in [18], 90.8 µM; in test [10], 95.8 µM; in [11], greater than 100 µM; in test [12], greater than 100 µM. Moreover, the TGI was greater than 100 µM in [20]; greater than 100 µM in test [13]; greater than 100 µM in test [14]; 81.8 µM in [15]; greater than 100 µM in test [16]; greater than 100 µM in test [17]. The same compound came in with a TGI in [19] greater than 100 µM.
Consider `Cc1ccccc1NC(=O)/C(C#N)=N\Nc1nc[nH]c1C(N)=O`, for which the TGI in test [1] was greater than 100 µM; in test [2], greater than 100 µM; in test [3], 18.2 µM; in test [4], greater than 100 µM; in test [5], greater than 100 µM; in [7] it was greater than 100 µM. Further, the TGI in test [9], in test [18], in test [10], in test [11], in [12] and in [20] was greater than 100 µM each time. The TGI in test [13], in test [14], in test [15], in test [16], in [17] and in test [19] was greater than 100 µM each time.
On to `CC1=CCC[C@]2(C)C1=CC(=O)O[C@H]2c1ccoc1`, for which the TGI in [1], in test [3], in test [4], in test [5], in [6] and in test [7] was greater than 100 µM throughout. Also, the TGI in test [8], in test [9], in test [18], in [10], in test [11] and in test [12] was greater than 100 µM in each case. Moreover, the TGI in test [20], in test [13], in [14], in [15], in test [16] and in test [17] was greater than 100 µM each time. Moreover, the TGI in test [19] is greater than 100 µM.
`CCn1c(SCC(=O)NNC(=S)Nc2ccc(F)cc2)nc2ccccc2c1=O`: the TGI in test [1], in test [2], in test [4], in [5], in [7] and in [8] was greater than 100 µM in each case. In addition, the TGI in [9], in [18], in [11], in test [12], in test [20] and in test [13] was greater than 100 µM in each case. Also, the TGI in [14], in test [15], in test [16], in test [17] and in test [19] was greater than 100 µM throughout.
Regarding `CN(C)CCN1C(=O)c2ccccc2C1(O)c1ccc(Cl)cc1` (stereo not given), the TGI in test [1], in test [2], in test [3], in test [4], in test [5] and in [7] was greater than 100 µM in each case. Besides, the TGI in [9], in test [18], in [10], in test [11], in [12] and in test [20] was greater than 100 µM throughout. Moreover, the TGI in test [13], in test [14], in test [15], in test [16], in test [17] and in test [19] was greater than 100 µM throughout.
Regarding `O=Cc1ccc2c(c1)CC1(C2)Cc2ccc(C=O)cc2C1`, the TGI in test [1] is 32 µM; in [3] it was greater than 100 µM; in [4] it was 19.6 µM; in [5], greater than 46.6 µM; in [6], 53.2 µM; in test [7], 53.6 µM. Moreover, the TGI in [8] was 21.8 µM; in test [9], 6.15 µM; in test [18], 7.11 µM; in test [10], 32.8 µM; in test [11] it was 32.5 µM; in [12], greater than 69.7 µM. The TGI in test [20] is 43.3 µM; in [13], 44.6 µM; in test [14] it was 59.1 µM; in test [15] it was greater than 100 µM; in test [16], 89.2 µM; in test [17], 23.8 µM. This compound also displayed a TGI in test [19] greater than 50.6 µM.
For `C/C(=N/NC(=S)N1CCCC1)c1cccc(/C(C)=N\NC(=S)N2CCCC2)n1`, the TGI in test [1] worked out at 2.66 µM; in [2] it was 5.13 µM; in test [3], 3.37 µM; in test [4], 3.28 µM; in test [5], 4.96 µM; in test [7], 5.1 µM. Besides, the TGI in [8] was greater than 100 µM; in test [9] it was 3.13 µM; in test [18], 2.18 µM; in [10], 3.63 µM; in test [11], 7.62 µM; in test [20], 5.36 µM. The TGI is 14.7 µM in [13]; 5.09 µM in test [14]; 4.65 µM in [15]; 12.1 µM in test [16]; 9.39 µM in [17]; 2.11 µM in test [19].
Take `CN1CCN(C(=S)N(C)C(=O)c2cccs2)CC1`: the TGI in test [1], in test [2], in test [5], in test [6], in test [7] and in test [8] was greater than 100 µM each time. Also, the TGI in test [9], in test [18], in [10], in [12], in test [16] and in test [17] was greater than 100 µM each time. Also, the TGI in test [19] was greater than 100 µM.
In the case of `COc1ccc(N2C(=O)/C(=C\c3cc(OC)c(OC)c(OC)c3)S(=O)(=O)C2c2ccccc2)cc1` (stereo not given), the TGI in [1], in [2], in test [3], in test [4], in test [5] and in test [6] was greater than 100 µM each time. In addition, the TGI was greater than 100 µM in [8]; 72.3 µM in [9]; greater than 100 µM in [18]; greater than 100 µM in test [10]; 78.9 µM in test [11]; greater than 100 µM in test [12]. Further, the TGI in [13], in test [14], in test [15], in test [16], in test [17] and in [19] was greater than 100 µM in each case.
Turning to `C=C(Cl)C(Br)(CBr)CCC(Br)C(C)(C)Br` (stereo not given), the TGI in test [1] was 3.08 µM; in test [2], greater than 10 µM; in test [3], greater than 10 µM; in test [4], 3.92 µM; in test [6], greater than 10 µM; in test [7], greater than 10 µM. In addition, the TGI in [9] is greater than 10 µM; in test [18], greater than 10 µM; in test [12], greater than 10 µM; in test [20] it was greater than 10 µM; in test [13] it was 6.25 µM; in test [14], greater than 10 µM. The TGI in test [15], in test [16], in [17] and in test [19] was greater than 10 µM each time.
As to `CCOC(=O)c1c(NC(=O)c2ccc(OC)cc2)sc2c1CCCC2`, the TGI in test [1], in test [2], in test [3], in test [4], in [7] and in [9] was greater than 100 µM throughout. Further, the TGI in [18], in [10], in test [11], in [20], in test [13] and in [14] was greater than 100 µM in each case. The TGI in test [16], in test [17] and in test [19] was greater than 100 µM in each case.
